Tests used:
[1] = tested on: Diabrotica virgifera virgifera and Agriotes lineatus; test: Field test, corn lodged due to damage by Diabrotica virgifera virgifera and Agriotes lineatus (Example 5); format: in vivo; conditions: Example section 5: clothianidin 80 g/ha, in-furrow spray of Dantop 50WG 125 L/ha, corn DKC 5143 seed treated with Maxim XL, MaisTer pre-treatment, 155 days after application; non-treatment section 36
Description: A chemical fertilizer (N:P:K=15:15:15) was applied to the soil surface of a cultivated land at 300 kg/ha, and the cultivated land was then plowed. In order to prevent generation of weeds, 28 days after fertilization, the whole cultivated land was spraying-treated with a mixed agent (using 610 g/kg water dispersible granule, trade name: […], manufactured by Bayer CropScience) of foramsulfuron and an iodosulfuron-methyl-sodium salt, each of which being a herbicide, and a safener, isoxadifen-ethyl, at 0.15 L/ha in terms of an application amount of the preparation. 3 days after application of the preparation, using a pneumatic seeder (disk furrow opener) equipped with a power sprayer, a cultivated land was ditched at intervals of 75 cm to a depth of 5 cm from the soil surface, and the furrow was seeded with corn (variety name: DKC 5143; hybrid variety, manufactured by Monsanto). […] 155 days after application of the clothianidin water dispersible granule, the number of plants of corn lodged due to damage by Diabrotica virgifera virgifera and Agriotes lineatus in the furrows of the example section 5 and the non-treatment section, for which the number of plants of corn germinated was investigated, was investigated, a lodge rate was calculated in accordance with the following equation, and then an average lodge rate for the four investigation sections was determined. […]

[2] = tested on: Diabrotica virgifera virgifera and Agriotes lineatus; test: Field test, lodge rate, clothianidin in-furrow, herbicides plus cyprosulfamide on soil (Example 7); format: in vivo; conditions: clothianidin 50 g/ha in-furrow spray 125 L/ha, thiuram-treated seed, 165 days after application; example in present tense
Description: A chemical fertilizer (N:P:K=15:15:15) is applied to the soil surface of a cultivated land at 300 kg/ha, and the cultivated land is then plowed. 7 days after fertilization, for suppressing generation of weeds, the soil surface of the whole cultivated land is spray-treated with a mixed liquid containing thiencarbazone-methyl and isoxaflutole, each of which being a herbicide, and cyprosulfamide which is a safener at 150 L/ha so that the application amounts of thiencarbazone-methyl, isoxaflutole and cyprosulfamide are 9.2 g/ha, 23 g/ha and 15 g/ha, respectively. 21 days after fertilization, using a pneumatic seeder (disk furrow opener) equipped with a power sprayer, a cultivated land is ditched at intervals of 75 cm to a depth of 5 cm from the soil surface, and the furrow is seeded with corn (Zea Mays; hybrid variety). […] 165 days after application of the aqueous suspension of clothianidin, the number of plants of corn lodged due to damage by Diabrotica virgifera virgifera and Agriotes lineatus in the furrows of the treatment section and the non-treatment section, for which the number of plants of corn germinated is investigated, is investigated, a lodge rate is calculated in accordance with the following equation, and then an average lodge rate for the four investigation sections is determined.

CN/C(=N\[N+](=O)[O-])NCc1cnc(Cl)s1 [clothianidin]
Lodge rate (%) [1]: 0%
Lodge rate compared to non-treatment section [2]: low lodge rate as compared to the non-treatment section

Source: US9265189B2, “Method for reducing damage by harmful organisms in corn cultivation” (SUMITOMO CHEMICAL COMPANY, LIMITED, priority 2012, dated 2016)
